We go through 14 compounds from patent US20230227484A1, “PYRIMIDINE COMPOUND AS AXL INHIBITOR” (NANJING CHIA TAI TIANQING PHARMACEUTICAL CO., LTD., priority 2020, published 2023).

One series concerns the target T1, AXL kinase (Homo sapiens, UniProt P30530).
T1 construct: purchased Carna 08-107
T1 sequence (P30530 473-894 limits assumed): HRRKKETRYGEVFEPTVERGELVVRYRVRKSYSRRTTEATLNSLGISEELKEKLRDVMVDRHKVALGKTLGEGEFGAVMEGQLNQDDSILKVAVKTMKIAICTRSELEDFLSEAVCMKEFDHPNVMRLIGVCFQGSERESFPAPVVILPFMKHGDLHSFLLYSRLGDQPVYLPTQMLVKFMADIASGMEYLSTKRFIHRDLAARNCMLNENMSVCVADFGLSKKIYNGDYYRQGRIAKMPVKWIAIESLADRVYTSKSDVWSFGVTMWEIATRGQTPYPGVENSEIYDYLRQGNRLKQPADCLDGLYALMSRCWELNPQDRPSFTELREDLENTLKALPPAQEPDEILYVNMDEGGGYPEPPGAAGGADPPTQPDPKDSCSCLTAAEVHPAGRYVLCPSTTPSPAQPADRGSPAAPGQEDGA
As to the kind of experiment: Inhibitory activity of compound against AXL kinase (HTRF KinEASE). It is filed as biochemical. The conditions noted are these: AXL enzyme (Carna, 08-107), ATP 15 μM; "<" means below detection limit of the test. The procedure, abridged: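 AXL enzyme (final 0.016 ng/uL) was preincubated with compound (8 concentrations from 1 μM, ½ log steps) for 15 min at room temperature, then reacted with TK Substrate 3-biotin (final 1) and ATP (final 15 μM) for 45 min at 25° C. Phosphorylation was read by HTRF (TK antibody-cryptate, streptavidin-XL665, 1 h); IC50 from variable-slope dose-response fit.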
For orientation: TR-FRET usually uses a lanthanide donor and a delayed reading to cut background.

The test system of series [1] is MV-4-11 (human myeloid monocytic leukemia cell line). As to the kind of experiment: Proliferation inhibition activity of compounds to MV-4-11 cells (CellTiter-Glo). The format is cell-based. The conditions noted are these: MV4-11 cells, 72 h dosing. On the procedure:
MV-4-11 (human myeloid monocytic leukemia cell line, culture medium: JIMDM+10% fetal bovine serum) is purchased from Cobioer Biosciences Co., Ltd and cultured in a 5% C02 incubator at 37° C. The cells in a logarithmic growth phase are plated in a 96-well plate at cell densities of 8000 cells/well, 6000 cells/well, 2000 cells/well, 2000 cells/well and 3000 cells/well, and a blank control group is set at the same time.
A compound to be tested and the positive drug are dissolved in dimethyl sulfoxide to prepare a 10 mM stock solution, which is then stored in −80° C. refrigerator for long-time storage. After the cells are plated for 24 h, the 10 mM compound stock solution is diluted with dimethyl sulfoxide to obtain a working solution having a 200-fold concentration (the highest concentration is 200 or 2000 μM, a 3-fold gradient, a total of 10 concentrations), and 3 μL of the working solution of each concentration is added to 197 μL of complete medium, and diluted into a working solution of 3-fold concentration. 50 μL of the working solution is then taken and added to a 100 μL cell culture medium (a final concentration of dimethyl sulfoxide is 0.5%, v/v), and two complex holes are set for each concentration. After 72 h of dosing treatment, 50 μl of CellTiter-Glo® (purchased from Promega) is added to each well. Fluorescence signals are measured on Envision (PerkinElmer) according to an operating procedure of the specification. GraphPad Prism 5 software log(inhibitor) vs. response-Variable slope is used to fit a dose-response curve, so as to obtain the IC50 value of the compound to the inhibition of cell-proliferation. The calculation formulation of the inhibition rate is as follows: […]
wherein: signal value of subject: a mean fluorescence signal of cell+medium+compound group; signal value of blank group: a mean fluorescence signal of medium group (containing 0.5% DMSO); signal value of negative control group: a mean fluorescence signal of cell+medium group (containing 0.5% DMSO).
On the technique in general: In ATP-based viability assays light output follows the ATP content of the culture.

A short description of series [2]: Pharmacokinetic study of compounds on ICR mice. The format is in vivo. The conditions noted are these: mouse, po, male ICR mice, plasma; for Cmax / Tmax / half-life: 10 mg-kg^1 by gavage; for AUC(0-t): 10 mg/kg-kg^1 by gavage, read-out: AUC0-24. On the procedure:
Each compound is prepared with DMSO into a 10 mg/mL stock solution.
Preparation of mixed solvent: Tween 80: PEG400: Water=1:9:90 (v/v/v)
450 μl of the compound DMSO stock solution with a concentration of 10 mg/nmL is accurately sucked into a glass bottle, and added with an appropriate volume of DMSO and mixed solvent, wherein a ratio of the solvent in the final formulation is DMSO: mixed solvent (v/v)=10:90. The mixed solution is vortexed (or ultrasonically treated), and dispersed uniformly to obtain 4.5 mL. administration test solutions with a concentration of 1 mg/nL, respectively.
Male 6-10 week old ICR mice (sourced from: Beijing Vital River Laboratory Animal Technology Co., Ltd.) are taken, 6 mice in each group. The mice are fasted overnight and fed 4 h after the administration. On the day of the experiment, the mice are administrated with 10 mg-kg^1 of compound test solution by gavage. After administration, about 100 μL of blood is harvested from the orbits of the mice at 0 min, 5 mmn, 15 mmn, 30 min, 14 h 2 h, 4 h, 8 h, and 24 h, and placed in EDTA-K2 anticoagulant tubes. The whole blood sample is centrifuged at 1500 to 1600 g for 10 mm, and the plasma obtained by separation is stored in a refrigerator at −40 to −20° C. for biological sample analysis. The blood drug concentration is determined by an LC-MS/MS method.
A non-compartmental model in Pharsight Phoenix 7.0 is used to calculate pharmacokinetic parameters. The specific results are shown in 5 the table below.

As usually defined, the IC50 is the midpoint of a concentration-inhibition curve. A low value points to higher potency. What is called Cmax is the highest concentration seen after dosing. As a reminder, the Tmax is the time at which the peak concentration occurs. By half-life is commonly meant how long it takes for the measured level to halve. Low values mean rapid decline, high ones slow decline. For the compound `CP(C)(=O)c1cc(F)ccc1Nc1nc(Nc2ccc3c(c2)CC[C@@H](N2CCCC2)CC3)ncc1Cl` [Example 51, (S)-(2-((5-chloro-2-((7-(pyrrolidin-1-yl)-6,7,8,9-tetrahydro-5H-benzo[7]annulen-2-yl)amino)pyrimidin-4-yl)amino)-5-fluorophenyl)dimethyl phosphine oxide], the IC50 against AXL kinase was 2.6 nM. In series [1], this compound registered an IC50 of 4.53 nM. Further, in series [2], the Cmax is 419 ng/mL, the Tmax came out at 0.5 h, the half-life was 2.17 h and the AUC(0-t) was determined as 1070 ng·h/mL.

`CP(C)(=O)c1cc(Cl)ccc1Nc1nc(Nc2ccc3c(c2)CC[C@@H](N2CCCC2)CC3)ncc1Cl` [Example 52] showed an IC50 at AXL kinase of 1.06 nM. For the same compound, 5.32 nM corresponded to half-maximal inhibition in series [1] (IC50). In series [2], the Cmax came to 429 ng/mL, the Tmax is 0.5 h, the half-life was 2.42 h and the AUC(0-t) came to 1150 ng·h/mL.

`CNC(=O)c1cnccc1Nc1nc(Nc2ccc3c(c2)CC[C@@H](N2CCCC2)CC3)ncc1Cl` [Example 20, (S)-4-((5-chloro-2-((7-(pyrrolidin-1-yl)-6,7,8,9-tetrahydro-5H-benzo[7]annulen-2-yl)amino)pyrimidin-4-yl)amino)-N-methylnicotinamide]: the IC50 stood at 1.93 nM at AXL kinase and 5.96 nM in series [1].

For the compound `CNC(=O)c1ccccc1Nc1nc(Nc2ccc3c(c2)CCN(C2CCCC2)CC3)ncc1Cl` [Example 32, 2-((5-chloro-2-((3-cyclopentyl-2,3,4,5-tetrahydro-1H-benzo(d)aza-7-yl)amino)pyrimidine-4-yl)amino)-N-methylbenzamide], the IC50 on AXL kinase was determined as 0.75 nM; in series [1], 1.98 nM.

With `CP(C)(=O)c1cc(F)c(Cl)cc1Nc1nc(Nc2ccc3c(c2)CC[C@@H](N2CCCC2)CC3)ncc1Cl` [Example 118, (S)-(4-chloro-2-((5-chloro-2-((7-(pyrrolidin-1-yl)-6,7,8,9-tetrahydro-5H-benzoannulen-2-yl)amino)pyrimidin-4-yl)amino)-5-fluorophenyl)dimethyl phosphine oxide], the IC50 on AXL kinase turned out to be 5.45 nM; in series [1], 30.3 nM.

For `CP(C)(=O)c1cc(O)ccc1Nc1nc(Nc2ccc3c(c2)CC[C@@H](N2CCCC2)CC3)ncc1Cl` [Example 61, (S)-(2-((5-chloro-2-((7-(pyrrolidin-1-yl)-6,7,8,9-tetrahydro-5H-benzo[7]annulen-2-yl)amino)pyrimidin-4-yl)amino)-5-hydroxyphenyl)dimethyl phosphine oxide], the values for the IC50 (on AXL kinase; in series [1]) were 2.38 nM and 7.1 nM, respectively.

For the compound `O=S(=O)(NC1CC1)c1ccccc1Nc1nc(Nc2ccc3c(c2)CC[C@@H](N2CCCC2)CC3)ncc1Cl` [Example 24, (S)-2-((5-chloro-2-((7-(pyrrolidin-1-yl)-6,7,8,9-tetrahydro-5H-benzo[7]annulen-2-yl)amino)pyrimidin-4-yl)amino)-N-cyclopropyl benzenesulfonamide], the IC50 at AXL kinase is below 0.11 nM; in series [1] it was 6.89 nM.

As for `Clc1cnc(Nc2ccc3c(c2)CC[C@@H](N2CCCC2)CC3)nc1Nc1ccccc1CN1CCOCC1` [Example 40, (S)-5-chloro-N^4-(2-(morpholinmethyl)phenyl)-N^2-(7-(pyrrolidin-1-yl)-6,7,8,9-tetrahydro-5H-benzo[7]annulen-2-yl)pyrimidine-2,4-diamine], the IC50 at AXL kinase turned out to be 0.72 nM; in series [1], 4.93 nM.

Consider `CC(C)(O)c1ccc(Nc2nc(Nc3ccc4c(c3)CC[C@@H](N3CCCC3)CC4)ncc2Cl)c(P(C)(C)=O)c1` [Example 138], for which the IC50 was found to be 5.29 nM against AXL kinase and 41.3 nM in series [1].

Turning to `CN1Cc2cccc(Nc3nc(Nc4ccc5c(c4)CCN(C4CCOCC4)CC5)ncc3Cl)c2C1=O` [Example 49, 7-((5-chloro-2-((3-(tetrahydro-2H-pyran-4-yl)-2,3,4,5-tetrahydro-1H-benzo[d]aza-7-yl)amino)pyrimidin-4-yl)amino)-2-methylisoindolin-1-one], the concentration for half-maximal inhibition (IC50) stood at 9.85 nM against AXL kinase and 8.3 nM in series [1].

As for `CS(=O)(=O)c1ccccc1Nc1nc(Nc2ccc3c(c2)CC[C@@H](N2CCCC2)CC3)ncc1Cl` [Example 23, (S)-5-chloro-N^4-(2-(methylsulfonyl)phenyl)-N^2-(7-(pyrrolidin-1-yl)-6,7,8,9-tetrahydro-5H-benzo[7]annulen-2-yl)pyrimidine-2,4-diamine], the IC50 is 1.38 nM against AXL kinase and 7.11 nM in series [1].

Take `CS(=O)(=O)Nc1ccccc1Nc1nc(Nc2ccc3c(c2)CC[C@@H](N2CCCC2)CC3)ncc1Cl` [Example 30, (S)—N-(2-((5-chloro-2-((7-(pyrrolidin-1-yl)-6,7,8,9-tetrahydro-5H-benzo[7]annulen-2-yl)amino)pyrimidin-4-yl)amino)phenyl)methanesulfonamide]: the IC50 was found to be 1.05 nM at AXL kinase and 2.64 nM in series [1].

Turning to `O=C1NCc2cccc(Nc3nc(Nc4ccc5c(c4)CC[C@@H](N4CCCC4)CC5)ncc3Cl)c21` [Example 29, (S)-7-((5-chloro-2-(((7-(pyrrolidin-1-yl)-6,7,8,9-tetrahydro-5H-benzo[7]annulen-2-yl)amino))pyrimidin-4-yl)amino)isoindolin-1-one], the IC50 against AXL kinase amounted to 0.34 nM; in series [1], 3.23 nM.

`CNC(=O)c1cc(F)ccc1Nc1nc(Nc2ccc3c(c2)CCN(C2CCOCC2)CC3)ncc1Cl` [Example 46, 2-((5-chloro-2-((3-(tetrahydro-2H-pyran-4-yl)-2,3,4,5-tetrahydro-1H-benzo[d]aza-7-yl)amino)pyrimidin-4-yl)amino)-5-fluoro-N-methylbenzamide]: the results for the IC50 (on AXL kinase; in series [1]) were 0.8 nM and 1.63 nM, respectively.
